Data on 38 compounds can be found in patent publication US20140179664A1, “Heterocyclyl Pyrimidine Analogues As JAK Inhibitors” (Cellzome Limited, priority 2011, published 2014).

The experiment has as its target T1, JAK3 (Homo sapiens, UniProt P52333).
T1 construct: endogenous in cells; host or cells: Molt4 (ATCC CRL-1582) and Ramos (ATCC CRL-1596), mixed lysate 1:2
T1 sequence (P52333 1-1124): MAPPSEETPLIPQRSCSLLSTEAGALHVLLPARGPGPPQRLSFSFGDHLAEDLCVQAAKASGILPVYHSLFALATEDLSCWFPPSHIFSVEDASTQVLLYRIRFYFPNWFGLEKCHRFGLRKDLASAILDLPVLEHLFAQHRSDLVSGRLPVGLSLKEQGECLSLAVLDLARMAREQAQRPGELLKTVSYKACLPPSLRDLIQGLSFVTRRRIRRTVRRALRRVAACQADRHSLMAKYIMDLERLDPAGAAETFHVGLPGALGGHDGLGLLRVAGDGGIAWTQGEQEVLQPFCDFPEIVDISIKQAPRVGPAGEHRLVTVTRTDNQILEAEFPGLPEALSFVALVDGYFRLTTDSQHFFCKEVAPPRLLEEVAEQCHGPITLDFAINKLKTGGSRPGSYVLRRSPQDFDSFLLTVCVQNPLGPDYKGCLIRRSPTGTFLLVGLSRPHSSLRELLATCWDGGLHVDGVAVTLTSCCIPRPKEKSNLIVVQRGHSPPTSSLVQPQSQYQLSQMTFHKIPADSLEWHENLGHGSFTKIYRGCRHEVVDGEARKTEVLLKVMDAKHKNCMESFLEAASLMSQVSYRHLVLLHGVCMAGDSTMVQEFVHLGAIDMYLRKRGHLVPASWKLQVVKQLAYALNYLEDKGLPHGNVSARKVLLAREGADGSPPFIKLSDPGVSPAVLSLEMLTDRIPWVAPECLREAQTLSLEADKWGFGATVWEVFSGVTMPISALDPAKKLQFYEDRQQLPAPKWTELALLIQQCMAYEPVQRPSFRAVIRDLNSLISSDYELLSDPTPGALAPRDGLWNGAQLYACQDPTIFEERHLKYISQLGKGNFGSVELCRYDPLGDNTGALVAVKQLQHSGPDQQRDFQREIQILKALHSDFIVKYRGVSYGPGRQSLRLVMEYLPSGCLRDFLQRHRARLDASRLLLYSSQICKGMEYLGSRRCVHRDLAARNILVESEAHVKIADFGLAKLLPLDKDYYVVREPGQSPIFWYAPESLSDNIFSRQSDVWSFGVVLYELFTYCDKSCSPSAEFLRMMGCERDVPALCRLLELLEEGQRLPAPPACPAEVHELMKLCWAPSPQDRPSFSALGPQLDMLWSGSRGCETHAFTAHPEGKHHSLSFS
Kind of experiment: Kinobeads assay, JAK3. In kind it is binding. The conditions noted are these: mixed Molt4/Ramos lysate, read-out: Inhibition values (IC50) JAK3. As to the method:
The compounds of the present invention as described in the previous examples were tested in a Kinobeads™ assay as described for ZAP-70 (WO-A 2007/137867). Briefly, test compounds (at various concentrations) and the affinity matrix with the immobilized aminopyrido-pyrimidine ligand 24 were added to cell lysate aliquots and allowed to bind to the proteins in the lysate sample. After the incubation time the beads with captured proteins were separated from the lysate. Bound proteins were then eluted and the presence of JAK1, JAK2, JAK3 and TYK2 was detected and quantified using specific antibodies in a dot blot procedure and the Odyssey infrared detection system. Dose response curves for individual kinases were generated and IC50 values calculated. Kinobeads™ assays for ZAP-70 (WO-A 2007/137867) and for kinase selectivity profiling (WO-A 2006/134056) have been previously described.
The affinity matrix was washed two times with 15 mL of lx DP buffer containing 0.2% NP40 (IGEPAL® CA-630, Sigma, #13021) and then resuspended in 1×DP buffer containing 0.2% NP40 (3% beads slurry).
5×DP buffer: 250 mM Tris-HCl pH 7.4, 25% Glycerol, 7.5 mM MgCl2, 750 mM NaCl, 5 mM Na3VO4; filter the 5×DP buffer through a 0.22 μm filter and store in aliquots at −80° C. The 5×DP buffer is diluted with H2O to 1×DP buffer containing 1 mM DTT and 25 mM NaF.
Stock solutions of test compounds were prepared in DMSO. In a 96 well plate […] solution of diluted test compounds at 5 mM in DMSO were prepared. Starting with this solution a 1:3 dilution series (9 steps) was prepared. For control experiments (no test compound) a buffer containing 2% DMSO was used.
Molt4 cells (ATCC catalogue number CRL-1582) and Ramos cells (ATCC catalogue number CRL-1596) were grown in 1 L Spinner flasks (Integra Biosciences, #182101) in suspension in RPMI 1640 medium (Invitrogen, #21875-034) supplemented with 10% Fetal Bovine Serum (Invitrogen) at a density between 0.15×10^6 and 1.2×10^6 cells/mL. Cells were harvested by centrifugation, washed once with 1×PBS buffer (Invitrogen, #14190-094) and cell pellets were frozen in liquid nitrogen and subsequently stored at −80° C. Cells were homogenized in a Potter S homogenizer in lysis buffer: 50 mM Tris-HCl, 0.8% NP40, 5% glycerol, 150 mM NaCl, 1.5 mM MgCl2, 25 mM NaF, 1 mM sodium vanadate, 1 mM DTT, pH 7.5. One complete EDTA-free tablet (protease inhibitor cocktail, Roche Diagnostics, 1873580) per 25 mL buffer was added. The material was dounced 10 times using a mechanized POTTER S, transferred to 50 mL falcon tubes, incubated for 30 minutes on ice and spun down for 10 minutes at 20,000 g at 4° C. (10,000 rpm in Sorvall SLA600, precooled). The supernatant was transferred to an ultracentrifuge (UZ)-polycarbonate tube (Beckmann, 355654) and spun for 1 hour at 100.000 g at 4° C. (33.500 rpm in Ti50.2, precooled). The supernatant was transferred again to a fresh 50 mL falcon tube, the protein concentration was determined by a Bradford assay (BioRad) and samples containing 50 mg of protein per aliquot were prepared. The samples were immediately used for experiments or frozen in liquid nitrogen and stored frozen at −80° C.
Cell lysate (approximately 50 mg protein per plate) was thawed in a water bath at room temperature and then stored on ice. To the thawed cell lysate 1×DP 0.8% NP40 buffer containing protease inhibitors (1 tablet for 25 mL buffer; EDTA-free protease inhibitor cocktail; Roche Diagnostics 1873580) was added in order to reach a final protein concentration of 10 mg/mL total protein. The diluted cell lysate was stored on ice. Mixed Molt4/Ramos lysate was prepared by combining one volume of Molt4 lysate and two volumes of Ramos lysate (ratio 1:2).
To a 96 well filter plate (Multiscreen HTS, BV Filter Plates, Millipore #MSBVN1250) were added per well: 100 μL affinity matrix (3% beads slurry), […], of compound solution, and 50 μL of diluted lysate. […]

Take `Cn1cc(Nc2ncc(Cl)c(NC(CO)c3cc(F)ccc3F)n2)cn1` (centres unmarked) [Compound 129]: the half-maximal inhibitory concentration (IC50) was less than 100 nM.

Turning to `CNC(=O)Cn1cc(Nc2ncc(Cl)c(NC(CO)c3cc(F)ccc3F)n2)cn1` (centres unmarked) [Compound 130], the 50% inhibitory concentration (IC50) is less than 100 nM.

Regarding `CNC(=O)Cn1cc(Nc2ncc(Cl)c(NC(CO)c3ccccc3C(F)(F)F)n2)cn1` (centres unmarked) [Compound 131], the IC50 is 100 to 1000 nM.

With `NC(=O)Cn1cc(Nc2ncc(Cl)c(NC(CO)c3cc(F)ccc3F)n2)cn1` (centres unmarked) [Compound 132], the IC50 is less than 100 nM.

Take `CNC(=O)Cn1cc(Nc2ncc(C)c(N[C@H](CO)c3ccccc3)n2)cn1` [Compound 133]: the half-maximal inhibitory concentration (IC50) was less than 100 nM.

As for `Cc1cnc(Nc2cnn(CC(=O)N(C)C)c2)nc1N[C@H](CO)c1ccccc1` [Compound 134], the IC50 was less than 100 nM.

For the compound `CN1CCC(n2cc(Nc3ncc(Cl)c(N[C@H](CO)c4ccccc4)n3)cn2)C1=O` (some centres unmarked) [Compound 135], the IC50 was less than 100 nM.

For `Cn1cc(Nc2ncc(Cl)c(N[C@H](CO)c3cccc(-c4cnn(C)c4)c3)n2)cn1` [Compound 136], the IC50 lay in the range of 100 to 1000 nM.

In the case of `Cn1cc(Nc2ncc(Cl)c(N[C@H](CO)c3cc(F)cc(-c4cnn(C)c4)c3)n2)cn1` [Compound 137], the IC50 fell in the range of 100 to 1000 nM.

In the case of `Cn1cc(Nc2ncc(Cl)c(N[C@H](CO)c3cccc(N4CCOCC4=O)c3)n2)cn1` [Compound 138], the IC50 was less than 100 nM.

Turning to `Cn1cc(Nc2ncc(Cl)c(N[C@H](CO)c3cc(F)ccc3F)n2)cn1` [Compound 139], the concentration for half-maximal inhibition (IC50) is less than 100 nM.

Consider `NC(=O)Cn1cc(Nc2ncc(Cl)c(N[C@H](CO)c3cc(F)ccc3F)n2)cn1` [Compound 140], for which the IC50 is less than 100 nM.

As to `CNC(=O)Cn1cc(Nc2ncc(Cl)c(N[C@H](CO)c3cc(F)ccc3F)n2)cn1` [Compound 141], the IC50 is less than 100 nM.

On to `Cn1cc(Nc2ncc(Cl)c(N[C@H](CO)c3cc(F)cc(F)c3)n2)cn1` [Compound 142], for which the IC50 is less than 100 nM.

Take `OCCn1cc(Nc2ncc(Cl)c(N[C@H](CO)c3cc(F)cc(F)c3)n2)cn1` [Compound 143]: the concentration for half-maximal inhibition (IC50) is less than 100 nM.

Take `NC(=O)Cn1cc(Nc2ncc(Cl)c(N[C@H](CO)c3cc(F)cc(F)c3)n2)cn1` [Compound 144]: the 50% inhibitory concentration (IC50) was less than 100 nM.

In the case of `CNC(=O)Cn1cc(Nc2ncc(Cl)c(N[C@H](CO)c3cc(F)cc(F)c3)n2)cn1` [Compound 145], the IC50 was less than 100 nM.

`Cn1cc(Nc2ncc(F)c(N[C@H](CO)c3cc(F)ccc3F)n2)cn1` [Compound 146]: the IC50 was less than 100 nM.

In the case of `OCCn1cc(Nc2ncc(F)c(N[C@H](CO)c3cc(F)ccc3F)n2)cn1` [Compound 147], the IC50 is less than 100 nM.

Turning to `CNC(=O)Cn1cc(Nc2ncc(F)c(N[C@H](CO)c3cc(F)ccc3F)n2)cn1` [Compound 148], the 50% inhibitory concentration (IC50) was less than 100 nM.

As for `Cc1cnc(Nc2cnn(C)c2)nc1N[C@H](CO)c1cccc(-c2cnn(C)c2)c1` [Compound 149], the half-inhibitory concentration (IC50) was 100 to 1000 nM.

Consider `Cn1cc(Nc2ncc(F)c(N[C@H](CO)c3cc(F)cc(-c4cnn(C)c4)c3)n2)cn1` [Compound 150], for which the concentration for half-maximal inhibition (IC50) fell in the range of 100 to 1000 nM.

As for `Cn1cc(-c2cccc([C@@H](CO)Nc3nc(Nc4cnn(CCO)c4)ncc3Cl)c2)cn1` [Compound 151], the half-inhibitory concentration (IC50) is 100 to 1000 nM.

In the case of `Cn1cc(-c2cc(F)cc([C@@H](CO)Nc3nc(Nc4cnn(CCO)c4)ncc3Cl)c2)cn1` [Compound 152], the IC50 is less than 100 nM.

For `Cn1cc(-c2cc(F)cc([C@@H](CO)Nc3nc(Nc4cnn(CCO)c4)ncc3F)c2)cn1` [Compound 153], the 50% inhibitory concentration (IC50) lay within 100 to 1000 nM.

Turning to `CNC(=O)Cn1cc(Nc2ncc(Cl)c(N[C@H](CO)c3cccc(-c4cnn(C)c4)c3)n2)cn1` [Compound 154], the half-maximal inhibitory concentration (IC50) was less than 100 nM.

Regarding `CNC(=O)Cn1cc(Nc2ncc(F)c(N[C@H](CO)c3cccc(-c4cnn(C)c4)c3)n2)cn1` [Compound 155], the half-maximal inhibitory concentration (IC50) was in the range of 100 to 1000 nM.

In the case of `CNC(=O)Cn1cc(Nc2ncc(Cl)c(N[C@H](CO)c3cc(F)cc(-c4cnn(C)c4)c3)n2)cn1` [Compound 156], the half-maximal inhibitory concentration (IC50) is less than 100 nM.

For `CNC(=O)Cn1cc(Nc2ncc(F)c(N[C@H](CO)c3cc(F)cc(-c4cnn(C)c4)c3)n2)cn1` [Compound 157], the IC50 lay in the range of 100 to 1000 nM.

With `Cn1cc(Nc2ncc(F)c(N[C@H](CO)c3cc(F)cc(F)c3)n2)cn1` [Compound 158], the half-maximal inhibitory concentration (IC50) was less than 100 nM.

For `OCCn1cc(Nc2ncc(F)c(N[C@H](CO)c3cc(F)cc(F)c3)n2)cn1` [Compound 159], the half-maximal inhibitory concentration (IC50) is less than 100 nM.

As for `NC(=O)Cn1cc(Nc2ncc(F)c(N[C@H](CO)c3cc(F)cc(F)c3)n2)cn1` [Compound 160], the half-inhibitory concentration (IC50) was less than 100 nM.

Turning to `CNC(=O)Cn1cc(Nc2ncc(F)c(N[C@H](CO)c3cc(F)cc(F)c3)n2)cn1` [Compound 161], the IC50 was less than 100 nM.

For the compound `Cn1cc(Nc2ncc(Cl)c(N[C@H](CO)c3cccc(N4CCOCC4=O)c3F)n2)cn1` [Compound 162], the concentration for half-maximal inhibition (IC50) is less than 100 nM.

With `Cc1cnc(Nc2cnn(C)c2)nc1N[C@H](CO)c1cc(F)ccc1F` [Compound 163], the IC50 was less than 100 nM.

Take `Cc1cnc(Nc2cnn(C)c2)nc1N[C@H](CO)c1cc(F)cc(F)c1` [Compound 164]: the concentration for half-maximal inhibition (IC50) was 100 to 1000 nM.

As to `OC[C@@H](Nc1nc(Nc2cnn(CC(F)F)c2)ncc1Cl)c1ccccc1F` [Compound 165], the concentration for half-maximal inhibition (IC50) is less than 100 nM.

`Cc1cnc(Nc2cnn(CC(F)F)c2)nc1N[C@H](CO)c1cc(F)ccc1F` [Compound 166]: the IC50 is 100 to 1000 nM.
